From ChEMBL document CHEMBL1146065, “Structure-based optimization of azole antifungal agents by CoMFA, CoMSIA, and molecular docking” (2006)
In brackets after ≈: the same amount, converted by molar mass.

Assays:
Type in all cases: functional
[1] = tested on: Candida albicans; test: Antifungal activity against Candida albicans
[2] = tested on: Candida tropicalis; test: Antifungal activity against Candida tropicalis
[3] = tested on: Cryptococcus neoformans; test: Antifungal activity against Cryptococcus neoformans
[4] = tested on: Fonsecaea pedrosoi; test: Antifungal activity against Fonsecaea pedrosoi
[5] = tested on: Trichophyton rubrum; test: Antifungal activity against Trichophyton rubrum
[6] = tested on: Sporothrix schenckii; test: Antifungal activity against Sporothrix schenckii
[7] = tested on: Aspergillus fumigatus; test: Antifungal activity against Aspergillus fumigatus
[8] = tested on: Candida parapsilosis; test: Antifungal activity against Candida parapsilosis; conditions: Lodderomyces parapsilosis

Row | MIC80 [1] | SMILES | further results
1 | 1.06 µM | O=C(c1ccc([N+](=O)[O-])cc1)N1CCN(CC(O)(Cn2cncn2)c2ccc(F)cc2F)CC1 (stereo not given) | –
2 | 0.285 µM | N#Cc1ccc(CN2CCN(CC(O)(Cn3cncn3)c3ccc(F)cc3F)CC2)cc1 (stereo not given) | –
3 | 0.0324 µM | N#Cc1ccc(N2CCN(CC(O)(Cn3cncn3)c3ccc(F)cc3F)CC2)cc1 (stereo not given) | –
4 | 0.031 µg/mL | CN(Cc1ccc(-n2cnn(CC(=O)c3ccc(Cl)cc3Cl)c2=O)cc1)CC(O)(Cn1cncn1)c1ccc(F)cc1F (stereo not given) | MIC80 [2]: 0.125 µg/mL (≈ 0.199 µM); MIC80 [3]: 16 µg/mL (≈ 25.5 µM); MIC80 [4]: 4 µg/mL (≈ 6.36 µM); MIC80 [5]: 32 µg/mL (≈ 50.9 µM); MIC80 [6]: 64 µg/mL (≈ 102 µM); MIC80 [7]: 64 µg/mL (≈ 102 µM); MIC80 [8]: 1 µg/mL (≈ 1.59 µM)
5 | 0.579 µM | OC(CN1CCN(Cc2ccc(F)cc2)CC1)(Cn1cncn1)c1ccc(F)cc1F (stereo not given) | –
6 | 0.254 µM | OC(CN1CCN(Cc2ccc(Br)cc2)CC1)(Cn1cncn1)c1ccc(F)cc1F (stereo not given) | –
7 | 0.002 µg/mL | CN(Cc1ccc(-n2cnn(Cc3cc(F)ccc3Br)c2=O)cc1)CC(O)(Cn1cncn1)c1ccc(F)cc1F (stereo not given) | MIC80 [2]: 0.25 µg/mL (≈ 0.398 µM); MIC80 [3]: 0.5 µg/mL (≈ 0.796 µM); MIC80 [4]: 0.25 µg/mL (≈ 0.398 µM); MIC80 [5]: 2 µg/mL (≈ 3.18 µM); MIC80 [6]: 16 µg/mL (≈ 25.5 µM); MIC80 [7]: 32 µg/mL (≈ 50.9 µM); MIC80 [8]: 0.008 µg/mL (≈ 0.0127 µM)
8 | 0.14 µM | OC(CN1CCN(Cc2cccc(Cl)c2)CC1)(Cn1cncn1)c1ccc(F)cc1F (stereo not given) | –
9 | 17.5 µM | COc1ccccc1C(=O)N1CCN(CC(O)(Cn2cncn2)c2ccc(F)cc2F)CC1 (stereo not given) | –
10 | 0.254 µM | O=[N+]([O-])c1ccc(Cl)c(CN2CCN(CC(O)(Cn3cncn3)c3ccc(F)cc3F)CC2)c1 (stereo not given) | –
11 | 0.541 µM | O=C(c1ccc(Cl)cc1)N1CCN(CC(O)(Cn2cncn2)c2ccc(F)cc2F)CC1 (stereo not given) | –
12 | 0.034 µM | CC(C)(C)c1ccc(CN2CCN(CC(O)(Cn3cncn3)c3ccc(F)cc3F)CC2)cc1 (stereo not given) | –
13 | 36.2 µM | Cc1ccccc1C(=O)N1CCN(CC(O)(Cn2cncn2)c2ccc(F)cc2F)CC1 (stereo not given) | –
14 | 0.232 µM | OC(CN1CCN(Cc2cccc(I)c2)CC1)(Cn1cncn1)c1ccc(F)cc1F (stereo not given) | –
15 | 0.122 µM | OC(CN1CCN(Cc2cc(F)ccc2Br)CC1)(Cn1cncn1)c1ccc(F)cc1F (stereo not given) | –
16 | 0.125 µg/mL | CCC(C)n1ncn(-c2ccc(N3CCN(c4ccc(OCC5COC(Cn6cncn6)(c6ccc(Cl)cc6Cl)O5)cc4)CC3)cc2)c1=O (stereo not given) [ITRACONAZOLE] | MIC80 [2]: 0.125 µg/mL (≈ 0.177 µM); MIC80 [3]: 2 µg/mL (≈ 2.83 µM); MIC80 [4]: 0.5 µg/mL (≈ 0.709 µM); MIC80 [5]: 1 µg/mL (≈ 1.42 µM); MIC80 [7]: 1 µg/mL (≈ 1.42 µM); MIC80 [8]: 0.25 µg/mL (≈ 0.354 µM)
17 | 2.5 µM | OC(CN1CCN(c2ccncc2)CC1)(Cn1cncn1)c1ccc(F)cc1F (stereo not given) | –
18 | 0.122 µM | OC(CN1CCN(Cc2ccc(F)cc2Br)CC1)(Cn1cncn1)c1ccc(F)cc1F (stereo not given) | –
19 | 0.0331 µM | OC(CN1CCN(Cc2ccc(Cl)cc2Cl)CC1)(Cn1cncn1)c1ccc(F)cc1F (stereo not given) | –
20 | 2.27 µM | Cc1cccc(C(=O)N2CCN(CC(O)(Cn3cncn3)c3ccc(F)cc3F)CC2)c1 (stereo not given) | –
21 | 34.9 µM | O=[N+]([O-])c1ccccc1CN1CCN(CC(O)(Cn2cncn2)c2ccc(F)cc2F)CC1 (stereo not given) | –
22 | 0.0612 µM | OC(CN1CCN(Cc2ccc(Br)cc2F)CC1)(Cn1cncn1)c1ccc(F)cc1F (stereo not given) | –
23 | 16.9 µM | O=C(c1cccc([N+](=O)[O-])c1)N1CCN(CC(O)(Cn2cncn2)c2ccc(F)cc2F)CC1 (stereo not given) | –
24 | 2.34 µM | Cc1ccc(CN2CCN(CC(O)(Cn3cncn3)c3ccc(F)cc3F)CC2)cc1 (stereo not given) | –
25 | 0.137 µM | CC(C)(C)c1ccc(N2CCN(CC(O)(Cn3cncn3)c3ccc(F)cc3F)CC2)cc1 (stereo not given) | –
26 | 4.64 µM | OC(CN1CCN(Cc2ccccc2F)CC1)(Cn1cncn1)c1ccc(F)cc1F (stereo not given) | –
27 | 2.16 µM | O=C(c1ccccc1Cl)N1CCN(CC(O)(Cn2cncn2)c2ccc(F)cc2F)CC1 (stereo not given) | –
28 | 0.273 µM | COc1ccc(C(=O)N2CCN(CC(O)(Cn3cncn3)c3ccc(F)cc3F)CC2)cc1 (stereo not given) | –
29 | 0.035 µM | O=Cc1ccc(N2CCN(CC(O)(Cn3cncn3)c3ccc(F)cc3F)CC2)cc1 (stereo not given) | –
30 | 0.124 µM | OC(CN1CCN(c2cc(C(F)(F)F)cc(Cl)n2)CC1)(Cn1cncn1)c1ccc(F)cc1F (stereo not given) | –
